In patent publication US11123313B2, “Methods and compositions for treating sleep apnea” (The Brigham and Women's Hospital, Inc., priority 2017, dated 2021):

System: obstructive sleep apnea (OSA) human patients
Conditions: seven OSA patients, 2 additional nights with single drugs
Method: Subsequently, a placebo-controlled, double-blinded, randomized, crossover trial in 20 obstructive sleep apnea (OSA) human patients was performed. Participants received treatment (Atomoxetine 80 mg+Oxybutynin 5 mg) or placebo in randomized order 30 minutes before sleep. […] Data are expressed as median [25th-75th percentile]
Seven OSA patients were studied also on 2 additional nights in which the 2 drugs were administered alone (not in combination).
Group data was obtained using genioglossus electromyography in 16 out of 20 patients who took part to the original trial to determine the effect of Atomoxetine plus Oxybutynin (ato-oxy) on genioglossus muscle responsiveness. Muscle responsiveness reflects the change in genioglossus muscle electromyographic activity (percent of baseline) per change in esophageal pressure (Pes) swings during spontaneous breathing in non-REM sleep (see FIG. 10B for physiological context).

| SMILES | AHI compared to placebo, drugs alone vs in combination |
| --- | --- |
| CNCC[C@@H](Oc1ccccc1C)c1ccccc1 [Atomoxetine] | did not improve the AHI |
| CCN(CC)CC#CCOC(=O)C(O)(c1ccccc1)C1CCCCC1 (centres unmarked) [Oxybutynin] | did not improve the AHI |
